Patent US9102697B2, “Trioxacarcins and uses thereof” (President and Fellows of Harvard College, priority 2010, dated 2015)

Tested on: self-complementary duplex 12-mer d(AATTACGTAATT) (SEQ ID NO: 1)
Assay: DNA alkylation detected by non-denaturing DNA-gel electrophoresis with in-gel fluorescence
Type: biochemical
Conditions: for alkylation / modification of the DNA duplex: 12-mer duplex with single central G residue, gel in-gel fluorescence and LC-MS; for fluorescent complex with the oligonucleotide detected: two-hour reaction at 23 °C
Source text: Two independent techniques were used to evaluate the reactivity of the synthesized trioxacarcins towards d(AATTACGTAATT) (SEQ ID NO: 1). The first technique involved detecting alkylated DNA oligonucleotides by in-gel fluorescence with non-denaturing DNA-gel electrophoresis. The second technique involved detecting alkylated DNA oligonucleotides using a liquid chromatography-mass spectrometry method.
We began the DNA-alkylation studies by evaluating the activity of DC-45-A2 towards the self-complementary 12-mer d(AATTACGTAATT) (SEQ ID NO: 1) in pH 7 phosphate buffer at different concentrations (FIG. 10). The concentration of the oligonucleotide was held constant at 100 μM while DC-45-A2 was used at five different concentrations ranging from 1 μM to 1000 μM (lanes 4-8) in five separate reactions. At the highest concentrations of DC-45-A2 (500 μM and 1000 μM), a second and distinct fluorescent complex was observed by in-gel fluorescence. […] Chem. 390, 1139 (2008). After incubation for 3 h at 23° C., aliquots of the reactions mixtures were loaded onto a 20% crosslinked polyacrylamide gel. After electrolution, the gels were visualized using an alpha imager, first by irradiating the gel at 302 nm to image fluorescent species in the gel (in-gel fluorescence) and then by treating the gel with ethidium bromide and again irradiating at 302 nm to image fluorescent species in the treated gel. The fluorescence quantum efficiency of an ethidium bromide molecule increases 20- to 25-fold upon intercalation into duplex DNA: J.-B. Le Pecq, C. Paoletti, Anal. Biochem. 17, 100 (1966).
Next, we compared the reactivity of DC-45-A2 to both iso-DC-45-A2 and dideoxy-DC-45-A2 towards the same oligonucleotide in three separate alkylation experiments (FIG. 11).
Having noted the apparent differential reactivity between DC-45-A2 and dideoxy-DC-45-A2, we performed an experiment to visualize the formation of the fluorescent complex at different reaction times (FIG. 12). The reaction of the oligonucleotide with DC-45-A2 reached an approximate maximum of fluorescence intensity between 5 and 10 h, while the reaction of the oligonucleotide with dideoxy-DC-45-A2 reached a maximum fluorescence intensity between 1 and 4 h.
Seven vials (designated vials 1 and vials 3-8) were loaded with alkylation buffer (86.7 μL, see above for preparation). A solution of duplex oligonucleotide d(AATTACGTAATT) (SEQ ID NO: 1) (1.07 mM [concentration of the DNA duplex] in alkylation buffer [see above for preparation], 9.34 μL, 10 nmol, 1 equiv) was added to vials 3-8. Dimethylsulfoxide was added in the following amounts to vials 3-7 (vial 3, 4.00 μL; vial 4, 3.80 μL; vial 5, 3.00 μL; vials 6-7, 2.00 μL). Solutions of DC-45-A2 in dimethylsulfoxide was added to vial 1 and vials 4-8 at the following concentrations and amounts (vial 1, 25 mM solution of DC-45-A2, 4.00 μL; vial 4, 5 mM solution of DC-45-A2, 0.20 μL; vial 5, 5 mM solution of DC-45-A2, 1.00 μL; vial 6, 5 mM solution of D-45-A2, 2.00 μL; vial 7, 25 mM solution of DC-45-A2, 2.00 μL; vial 8, 25 mM solution of DC-45-A2, 4.00 μL). The samples were vortexed, then rotated end-over-end at 23° C. After 2 h, four vials (designated vials 9-12) were prepared containing the following (vial 9, an aliquot of the solution from vial 3 [18.0 μL], DNase I enzyme solution [2.00 μL, Invitrogen 18047-019]; vial 10, an aliquot of the solution from vial 3 [20.0 μL]; vial 11, an aliquot of the solution from vial 5 [18.0 μL], DNase I enzyme [2.00 μL, Invitrogen 18047-019]; vial 12, an aliquot of the solution from vial 5 [20.0 μL]. Vials 9 and 11 were rotated end-over-end at 23° C. for 1 h. Vials 10 and 12 were heated at 95° C. for 15 min. To a final vial (designated vial 2) was added a 10-bp DNA ladder (4 μL, Invitrogen 10821-015) and alkylation buffer (16.0 μL). Vials 2 and 9-12 were diluted with loading buffer (5.00 μL, see above for preparation). A 20-μL aliquot was removed from vials 1 and 3-8. […]

## COc1c2c(c(O)c3c4c(c(C)cc13)[C@H]1O[C@]3(C(OC)OC)O[C@H]1[C@](O)(O4)[C@@]31CO1)C(=O)[C@@H](O)C[C@@H]2O [iso-DC-45-A2, 11,12,13,15-tetraepi-DC-45-A2]
23 °C
  alkylation / modification of the DNA duplex: unreactive
23 °C, listed as Iso-DC-45-A2
  alkylation / modification of the DNA duplex: not observed to modify

## DC-45-A2
23 °C
  alkylation / modification of the DNA duplex: found to modify
  rate of alkylation of the DNA duplex: half life of hours
23 °C, listed as 1
  alkylation / modification of the DNA duplex: readily alkylated
Compound and DNA 100 μM
  fluorescent complex with the oligonucleotide detected: clearly detected
Reaction mixture heated at 95 °C for 15 min
  stability of the fluorescent DNA complex to heating: destroyed

## Dideoxy-DC-45-A2
23 °C
  alkylation / modification of the DNA duplex: found to modify
  rate of alkylation of the DNA duplex: within minutes
23 °C, compared with DC-45-A2
  efficiency of alkylation of the DNA duplex: apparently greater efficiency
Compound and DNA 100 μM, 2 h at 23 °C, compared with DC-45-A2
  signal intensity of the fluorescent complex: more intense signal
Compound and DNA 100 μM
  fluorescent complex with the oligonucleotide detected: clearly detected
